According to patent US8778876B2, “Small-molecule inhibitors of Dengue and West Nile virus proteases” (The Board of Regents of the University of Texas System, priority 2011, dated 2014):
“Also recorded” adds a separate entry of the source. Counter-ions that a name gives are not always drawn. Like-named read-outs stand apart in the source and are kept apart here.

Assays:
[1] = target: T1, Bovine pancreatic trypsin (Bos taurus, UniProt P00760); assay: biochemical; type: biochemical
T1 construct: purchased Sigma Aldrich; host or cells: bovine pancreas
T1 sequence (P00760 24-246): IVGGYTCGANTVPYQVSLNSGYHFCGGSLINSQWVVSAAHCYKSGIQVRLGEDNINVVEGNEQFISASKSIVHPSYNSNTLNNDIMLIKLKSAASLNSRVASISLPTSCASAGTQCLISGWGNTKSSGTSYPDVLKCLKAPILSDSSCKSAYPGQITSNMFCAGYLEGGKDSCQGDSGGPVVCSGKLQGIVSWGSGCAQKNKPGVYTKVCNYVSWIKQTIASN

[2] = target: T2, DEN2V NS2B-NS3pro (Dengue virus type 2, UniProt Q91H74); assay: Steady-state kinetics of inhibitors of DEN2V NS2B-NS3pro (Boc-GRR-AMC substrate, Dynafit); type: biochemical, Dengue 2 virus
[3] = target: T1, Bovine pancreatic trypsin; assay: Trypsin inhibition assay with chromogenic BAPNA substrate; type: biochemical; conditions: analog at 100 μM
Protocol: Bovine pancreatic trypsin (Sigma Aldrich, St. Louis) and N-α-Benzoyl-DL-arginine 4-nitroanilide hydrochloride (BAPNA) substrate (Sigma Aldrich, St. Louis) were used for trypsin inhibition assays. Trypsin stock solutions were prepared in sodium phosphate buffer (67 mM [pH 7.6]). Trypsin (60 μM) was incubated with chromogenic BAPNA (500 μM) and release of the para-nitroanilide product monitored using a DU640 spectrophotometer (Beckman Coulter, USA) to measure absorption at 415 nm. The slope of the progress curve was determined using linear regression and used as a baseline for comparison with inhibitor reactions.

[4] = physchem; conditions: pH 9, aqueous with cosolvent or surfactant or cyclodextrin, kinetic from dmso stock
[5] = pH 9
[6] = target: T2, DEN2V NS2B-NS3pro; assay: Preliminary DEN2V NS2B-NS3pro inhibition assay; type: biochemical, Dengue 2 virus; conditions: 100 nM protease, 100 μM Boc-GRR-AMC, 30 min at 25° C.; aprotinin at 100 μM
[7] = target: WNV NS2B-NS3pro (West Nile virus, UniProt P06935); assay: Steady-state kinetics of inhibitors of WNV NS2B-NS3pro; type: biochemical; conditions: for Mechanism: Table 2, WNV NS2B-NS3pro
[8] = system: DENV; WNV protease; type: biochemical, Dengue virus; West Nile virus
[9] = system: cells; conditions: Yip et al., 2006; cited from earlier work
[10] = Ki1 (from biochemical protease inihibition experiments) West Nile virus NS2B-NS
[11] = DEN2V NS2B-NS3 Ki1, second series analogs
[12] = DEN2V NS2B-NS3 Ki2, second series analogs
[13] = Ki1 (from biochemical protease inihibition experiments) Dengue 2 virus NS2B-NS3
[14] = Table 1, DEN2V NS2B-NS3pro, HTS-identified hits

Sequence of WNV NS2B-NS3pro (P06935 1502-1679 limits assumed): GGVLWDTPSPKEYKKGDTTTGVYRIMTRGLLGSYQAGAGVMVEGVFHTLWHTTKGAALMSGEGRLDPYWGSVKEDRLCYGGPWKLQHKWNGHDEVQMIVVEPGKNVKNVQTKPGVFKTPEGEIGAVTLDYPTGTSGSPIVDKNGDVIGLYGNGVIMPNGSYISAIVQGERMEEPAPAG
Sequence of WNV NS2B-NS3pro (P06935 1424-1463 partner limits assumed): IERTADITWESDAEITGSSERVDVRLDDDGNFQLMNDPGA
T2 sequence (Q91H74 entry or part of it, added parts left off): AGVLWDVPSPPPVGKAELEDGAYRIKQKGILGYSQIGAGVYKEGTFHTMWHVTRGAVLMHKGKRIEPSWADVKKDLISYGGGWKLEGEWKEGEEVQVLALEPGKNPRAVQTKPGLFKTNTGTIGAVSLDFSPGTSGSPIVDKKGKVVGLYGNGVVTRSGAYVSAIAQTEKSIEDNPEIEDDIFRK
T2 sequence (Q91H74 entry or part of it partner, added parts left off): as the sequence (Q91H74 entry or part of it, added parts left off) above

Compound: O=C1c2c(O)ccc([N+](=O)[O-])c2C(=O)c2c([N+](=O)[O-])ccc(O)c21 [ARDP0006, reference compound]
- Mechanism (trypsin inhibition) [1]: uncompetitive trypsin inhibitor
- Ki ([1]; Ki2 trypsin): 13 µM
- Ki ([2]; Ki1, Table 4, ARDP0006 analogs, DEN2V NS2B-NS3pro): 432 ± 46 µM
- Mechanism ([2]; Table 4, ARDP0006 analogs, DEN2V NS2B-NS3pro): competitive inhibition model
- Inhibition of trypsin cleavage of the chromogenic substrate [3]: not the chromogenic substrate
- solubility [4]: > 10 µM

Compound: N=C(N)c1ccccc1 [Benzamidine, reference compound]
- Mechanism (trypsin inhibition) [1]: competitive trypsin inhibitors

Compound: O=P(=O)c1ccc(OC2OCC(O)C(O)C2O)cc1 (stereo not shown) [Compound 6A31]
- solubility [5]: NS (key: compounds soluble in aqueous buffer were indicated with “S”; insoluble compounds indicated with “NS.”)

Compound: Nc1ccc(N)c2c1C(=O)c1c(N)ccc(N)c1C2=O [Compound 6A42]
- Mechanism (trypsin inhibition) [1]: mixed noncompetitive trypsin inhibitors; also recorded: inhibited both the DEN2V NS2B-NS3 protease and trypsin
- Ki ([1]; Ki1 trypsin): 60 ± 13 µM
- Ki ([1]; Ki2 trypsin): 167 ± 20 µM
- Inhibition of DEN2V NS2B-NS3pro in the preliminary inhibition assay [6]: significant inhibition

Compound: O=C1c2c(O)cccc2Cc2cccc(O)c21 [Compound 6A45]
- Ki [7, 10]: 2 µM
- Mechanism (trypsin inhibition) [1]: competitive trypsin inhibitors; also recorded: inhibited both the DEN2V NS2B-NS3 protease and trypsin
- Ki ([1]; Ki1 trypsin): 0.6 ± 0.07 µM
- Inhibition of DEN2V NS2B-NS3pro in the preliminary inhibition assay [6]: significant inhibition
- solubility [4]: > 10 µM

Compound: O=C1c2ccc(O)cc2C(=O)c2c1ccc(O)c2O [Compound 6A47]
- Mechanism (trypsin inhibition) [1]: mixed noncompetitive trypsin inhibitors; also recorded: inhibited both the DEN2V NS2B-NS3 protease and trypsin
- Ki ([1]; Ki1 trypsin): 4 µM
- Ki ([1]; read-out: Ki2 trypsin): 25 ± 3 µM
- Inhibition of DEN2V NS2B-NS3pro in the preliminary inhibition assay [6]: significant inhibition
- solubility [4]: > 10 µM

Compound: O=[N+]([O-])c1ccc(N=Nc2ccc(O)c3ccccc23)c([N+](=O)[O-])c1 [Compound 6A49]
- Protease inhibited in Knock-down [8]: DENV; WNV
- Ki [7, 10]: 34 µM
- Ki ([7]; WNpro Ki1): 34 µM
- Mechanism (trypsin inhibition) [1]: did not inhibit trypsin; also recorded: No inhibition
- Inhibition of DEN2V NS2B-NS3pro in the preliminary inhibition assay [6]: significant inhibition
- solubility [4]: > 10 µM

Compound: Oc1ccc2cc3ccc(O)cc3c(O)c2c1 [Compound 6A60]
- Ki [7, 10]: 11 µM
- Trypsin Mechanism [1]: did not inhibit trypsin cleavage activity; also recorded: No inhibition
- Ki [2, 11]: 7 ± 5 µM
- Ki [2, 12]: 3 ± 1 µM
- Ki [2, 13]: 7 µM
- DEN2V NS2B-NS3 Ki1 ([2]; second series analogs): lowest Ki1 of all anthracene-based analogs
- DEN2V NS2B-NS3 Mechanism ([2]; second series analogs): Mixed
- solubility [4]: > 10 µM

Compound: O=C1c2ccc(O)c(O)c2C(=O)c2c(O)ccc(O)c21 [Compound 6A61]
- Ki [7, 10]: 31 µM
- Trypsin Mechanism [1]: did not inhibit trypsin; also recorded: No inhibition
- Ki [2, 11]: 72 ± 15 µM
- Ki [2, 12]: 10 ± 2 µM
- Ki [2, 13]: 72 µM
- DEN2V NS2B-NS3 Mechanism ([2]; second series analogs): Mixed
- solubility [4]: > 10 µM

Compound: COc1cc(O)c2c(=O)c3c(O)ccc(OCl)c3oc2c1 [Compound 6A63]
- Solubility in the kinetic reaction buffer [5]: not soluble
- solubility [4]: < 10 µM

Compound: O=[N+]([O-])c1ccc(/C=N/c2ccc(O)c3ccccc23)c([N+](=O)[O-])c1 [Compound 260]
- Protease inhibited in Knock-down [8]: DENV; WNV
- Ki ([7]; WNpro Ki1): 14 µM
- Ki ([7]; WNpro Ki2): 5 µM
- Ki ([2]; Denpro Ki1): 52 µM
- Ki ([2]; Denpro Ki2): 5 µM

Compound: O=C(Nc1ccc(O)c2ccccc12)c1ccc([N+](=O)[O-])cc1[N+](=O)[O-] [Compound 273]
- Protease inhibited in Knock-down [8]: DENV; WNV
- Ki ([7]; WNpro Ki1): < 169 µM
- Ki ([7]; WNpro Ki2): < 186 µM
- Ki ([2]; Denpro Ki1): < 223 µM

Compound: Oc1cc2ccc(/N=N/c3ccc4c(c3)OCO4)cc2cc1O [Compound 290]
- Protease inhibited in Knock-down [8]: DENV; WNV
- Ki ([7]; WNpro Ki2): < 6 µM
- Ki ([2]; Denpro Ki2): < 8.5 µM

Compound: Oc1ccc2cc(/N=N/c3ccc4c(c3)OCO4)c(O)cc2c1 [Compound 292]
- Protease inhibited in Knock-down [8]: WNV

Compound: O=[N+]([O-])c1cc(/N=N/c2ccc3cc(O)c(O)cc3c2)ccc1O [Compound 293]
- Protease inhibited in Knock-down [8]: DENV
- Ki ([7]; WNpro Ki2): 20 µM
- Ki ([2]; Denpro Ki1): 432 µM
- Ki ([2]; Denpro Ki2): 29 µM

Compound: Oc1ccc2c(/N=N/c3ccc4c(c3)OCO4)ccc(O)c2c1 [Compound 296]
- Protease inhibited in Knock-down [8]: DENV; WNV
- Ki ([7]; WNpro Ki2): 116 µM
- Ki ([2]; Denpro Ki1): 215 µM
- Ki ([2]; Denpro Ki2): 62 µM

Compound: O=[N+]([O-])c1cc(/N=N/c2ccc(O)c3cc(O)ccc23)ccc1O [Compound 297]
- Protease inhibited in Knock-down [8]: DENV; WNV
- Ki ([7]; WNpro Ki2): 61 µM
- Ki ([2]; Denpro Ki2): 85 µM

Compound: O=[N+]([O-])c1ccc(/N=N/c2ccc(O)c3cc(O)ccc23)c([N+](=O)[O-])c1 [Compound 298]
- Protease inhibited in Knock-down [8]: DENV; WNV
- Ki ([7]; WNpro Ki1): 4 µM
- Ki ([7]; WNpro Ki2): 2 µM
- Ki ([2]; Denpro Ki1): 40 µM
- Ki ([2]; Denpro Ki2): 4 µM

Compound: O=[N+]([O-])c1ccc(/N=N/c2ccc3cc(O)c(O)cc3c2)c(O)c1 [Compound 300]
- Protease inhibited in Knock-down [8]: DENV; WNV
- Ki ([7]; WNpro Ki1): 3 µM
- Ki ([7]; WNpro Ki2): 2 µM
- Ki ([2]; Denpro Ki1): 81 µM
- Ki ([2]; Denpro Ki2): 5 µM

Compound: Cc1ccc(O)c(/N=N/c2c(O)cc(O)c3ccccc23)c1 [Compound 301]
- Protease inhibited in Knock-down [8]: DENV; WNV

Compound: O=[N+]([O-])c1ccc(/N=N/c2c(O)cc(O)c3ccccc23)c(O)c1 [Compound 302]
- Protease inhibited in Knock-down [8]: DENV; WNV

Compound: CC(=O)Oc1cc2c(cc1OC(C)=O)[C@@H]1c3ccc(OC(C)=O)c(OC(C)=O)c3OC[C@]1(OC(C)=O)C2 [MS5, Haematoxylin pentaacetate]
- Inhibition in single-point knock-down assays with either protease ([8]; compound incubated with cleavage buffer overnight (complete oxidation)): no observable inhibition
- Mechanism [7]: Mixed
- Mechanism [2, 14]: Mixed
- Ki ([2]; Table 1, DEN2V NS2B-NS3pro, read-out: Ki1): 16 ± 7 µM
- Ki ([2]; Table 1, DEN2V NS2B-NS3pro, read-out: Ki2): 5 ± 0.7 µM

Compound: CCCCC(CC)CNC(=N)NC(=N)NCCCCCCNC(=N)NC(=N)NCC(CC)CCCC (stereo not shown) [MS28, Alexidine hydrochloride, reference compound]
- Ki ([7]; Ki1, Table 2, WNV NS2B-NS3pro): 12 µM
- Ki ([7]; Ki2, Table 2, WNV NS2B-NS3pro): 28 ± 5 µM
- Mechanism [7]: Mixed
- Ki ([2]; Ki1, Table 1, DEN2V NS2B-NS3pro): 41 ± 3 µM
- Ki ([2]; Ki2, Table 1, DEN2V NS2B-NS3pro): 84 ± 16 µM
- Mechanism [2, 14]: Mixed
- ED50 (cell viability reduced by 50%) [9]: low micromolar

Compound: aprotinin [reference compound]
- Inhibition of DEN2V NS2B-NS3pro in the preliminary inhibition assay [6]: fluorescence levels that were similar to that of the “substrate alone” background control
